Measurements reported in patent US9034918B2, “Composition including at least one trans-cinnamaldehyde and the use thereof in the treatment of bacterial infections, specifically in the treatment of nosocomial infections” (SEPTEOS, priority 2009, dated 2015).

Experiments:
Experiment in all cases: Antibiogram by diffusion technique (CA-SFM 2008)
Type in all cases: cell-based
[1] = test system: Enterococcus faecium (9001); conditions: strain 9001
Text: (§1) Three clinical categories were selected for interpretation of the in vitro sensitivity tests: sensitive (S), resistant (R) and intermediate (I). • The strains categorized S are those for which the probability of therapeutic success is high in the case of treatment by systemic route with the dosing schedule recommended in the summary of product characteristics (SPC) prepared by the French Health Products Safety Agency (AFSSAPS). • The strains categorized R are those for which there is a high probability of therapeutic failure regardless of treatment type and antibiotic dose. • The strains categorized I are those for which therapeutic success cannot be predicted. These strains form a heterogeneous group for which the results obtained in vitro are not predictive of therapeutic success. […] The intermediate category is also a buffer zone which takes into account technical and biological uncertainties.
(§2) The sensitivity of strains to antibiotics was determined by a diffusion technique according to the 2008 recommendations by the Antibiogram Committee of the French Microbiology Society (CA-SFM).
(§3) In terms of critical concentrations and diameters, strains are categorized as follows: • sensitive (S): strains for which the MIC of the antibiotic tested is less than or equal to the lower critical concentration c, which is equivalent to a diameter greater than or equal to the critical diameter D; • resistant (R): strains for which the MIC of the antibiotic tested are greater than the upper critical concentration C, corresponding to a diameter less than the critical diameter d; • intermediate sensitivity (I): strains for which the MIC of the antibiotic tested and the corresponding diameter are between the two critical concentrations and the two critical diameters.
(§4) The tests were carried out on Mueller-Hinton agar. An inoculum adjusted to 0.5 on the McFarland scale is then diluted to 1/100. Petri dishes are inoculated by swabbing. The dishes are read after 24 hours of incubation at 37° C.
(§5) The raw results are then interpreted according to the interpretative reading rules of the CA-SFM.

E. coli strain 8154 = test system: E. coli strain 8154; design: D: unit not given here
Text: as §1, §2, §3, §4, §5

[2] = test system: Pseudomonas aeruginosa strain 8128; design: D: unit not given here
Text: as §1, §2, §3, §4, §5

E. coli strain 8155 = test system: E. coli strain 8155; design: D: unit not given here
Text: as §1, §2, §3, §4, §5

E. coli strain 8156 = test system: E. coli strain 8156; design: D: unit not given here
Text: as §1, §2, §3, §4, §5

E. coli strain 8157 = test system: E. coli strain 8157; design: D: unit not given here
Text: as §1, §2, §3, §4, §5

[3] = test system: Pseudomonas aeruginosa strain 8134; design: D: unit not given here
Text: as §1, §2, §3, §4, §5

[4] = test system: golden staph (S. aureus) strain 8240; design: D: unit not given here
Text: as §1, §2, §3, §4, §5

[5] = test system: Pseudomonas aeruginosa strain 8129; design: D: unit not given here
Text: as §1, §2, §3, §4, §5

[6] = test system: golden staph (S. aureus) strain 8147; design: D: unit not given here
Text: as §1, §2, §3, §4, §5

[7] = test system: golden staph (S. aureus) strain 8239; design: D: unit not given here
Text: as §1, §2, §3, §4, §5

[8] = test system: Pseudomonas aeruginosa strain 8132; design: D: unit not given here
Text: as §1, §2, §3, §4, §5

E. coli ATCC 25922 = test system: E. coli ATCC 25922; design: Diameter (D): unit not given here
Text: Three clinical categories were selected for interpretation of the in vitro sensitivity tests: sensitive (S), resistant (R) and intermediate (I). • The strains categorized S are those for which the probability of therapeutic success is high in the case of treatment by systemic route with the dosing schedule recommended in the summary of product characteristics (SPC) prepared by the French Health Products Safety Agency ([…]). • The strains categorized R are those for which there is a high probability of therapeutic failure regardless of treatment type and antibiotic dose. • The strains categorized I are those for which therapeutic success cannot be predicted. These strains form a heterogeneous group for which the results obtained in vitro are not predictive of therapeutic success. […] The intermediate category is also a buffer zone which takes into account technical and biological uncertainties. The sensitivity of strains to antibiotics was determined by a diffusion technique according to the 2008 recommendations by the Antibiogram Committee of the French Microbiology Society (CA-SFM). In terms of critical concentrations and diameters, strains are categorized as follows: • sensitive (S): strains for which the MIC of the antibiotic tested is less than or equal to the lower critical concentration c, which is equivalent to a diameter greater than or equal to the critical diameter D; • resistant (R): strains for which the MIC of the antibiotic tested are greater than the upper critical concentration C, corresponding to a diameter less than the critical diameter d; • intermediate sensitivity (I): strains for which the MIC of the antibiotic tested and the corresponding diameter are between the two critical concentrations and the two critical diameters. The tests were carried out on Mueller-Hinton agar. An inoculum adjusted to 0.5 on the McFarland scale is then diluted to 1/100. Petri dishes are inoculated by swabbing. The dishes are read after 24 hours of incubation at 37° C. The raw results are then interpreted according to the interpretative reading rules of the CA-SFM. Two examples: all strains of methicillin-resistant Staphylococcus are resistant to all beta-lactams, and the same is true for gentamicin-resistant strains; golden staph is necessarily resistant to kanamycin (and amikacin) and tobramycin. The quality of the diffusion method is controlled using E. coli strain ATCC 25922.

[9] = test system: strain 9010, Acinetobacter baumannii, with VEB-1 ESBL
Text: as §1, §2, §3, §4, §5

[10] = test system: strain 9007, Pseudomonas aeruginosa, with VIM-2 carbapenemase
Text: as §1, §2, §3, §4, §5

Enterococcus strain 8153 = test system: Enterococcus strain 8153; design: Diameter: unit not given here
Text: as §1, §2, §3, §4, §5

Enterococcus strain 8152 = test system: Enterococcus strain 8152; design: Diameter: unit not given here
Text: as §1, §2, §3, §4, §5

E. coli strain 9003 = test system: E. coli strain 9003
Text: as §1, §2, §3, §4, §5

[11] = test system: Enterobacter aerogenes (9004); conditions: strain 9004
Text: as §1, §2, §3, §4, §5

Row | Molecule | Category [1] | Cat. (E. coli strain 8154) | D (E. coli strain 8154) | Cat. [2] | D [2] | Cat. (E. coli strain 8155) | D (E. coli strain 8155) | Cat. (E. coli strain 8156) | D (E. coli strain 8156) | Cat. (E. coli strain 8157) | Cat. [4] | D [4] | Cat. [6] | D [6] | Cat. [7] | D [7] | Category (Enterococcus strain 8153) | Diameter (Enterococcus strain 8153) | Category (Enterococcus strain 8152) | Diameter (Enterococcus strain 8152) | other results
1 | CN[C@@H]1[C@H](O[C@H]2[C@H](O[C@H]3[C@H](O)[C@@H](O)[C@H](N=C(N)N)[C@@H](O)[C@@H]3N=C(N)N)O[C@@H](C)[C@]2(O)C=O)O[C@@H](CO)[C@H](O)[C@H]1O [Strepto HC] | R | – | – | – | – | – | – | – | – | – | – | – | – | – | – | – | – | – | – | – | –
2 | CC[C@H]1OC(=O)[C@H](C)[C@@H](O[C@H]2C[C@@](C)(OC)[C@@H](O)[C@H](C)O2)[C@H](C)[C@@H](O[C@@H]2O[C@H](C)C[C@H](N(C)C)[C@H]2O)[C@](C)(O)C[C@@H](C)C(=O)[C@H](C)[C@@H](O)[C@]1(C)O [Erythro] | R | – | – | – | – | – | – | – | – | – | – | – | – | – | – | – | – | – | – | – | –
3 | NC[C@H]1O[C@H](O[C@H]2[C@H](O)[C@@H](O[C@H]3O[C@H](CO)[C@@H](O)[C@H](N)[C@H]3O)[C@H](N)C[C@@H]2N)[C@H](O)[C@@H](O)[C@@H]1O [Kanamycin] | R | S | 24 | R | 9 | S | 23 | S | 27 | S | R | 12 | S | 22 | S | 26 | R | 14 | R | 10 | D (E. coli strain 8157): 24; Cat. [3]: R; D [3]: 14; Cat. [5]: R; D [5]: 10; Cat. [8]: R; D [8]: 0; Category (Cat.) (E. coli ATCC 25922): S; Diameter (D) (E. coli ATCC 25922): 22; Category [9]: R; Category [10]: R
4 | CC1(C)S[C@@H]2[C@H](NC(=O)[C@H](N)c3ccccc3)C(=O)N2[C@H]1C(=O)O [Ampi] | R | – | – | – | – | – | – | – | – | – | – | – | – | – | – | – | – | – | – | – | –
5 | Amoxicillin + clavulanic acid | – | S | 14 | R | 0 | S | 24 | S | 22 | S | R | 25 | R | 25 | R | 27 | S | 32 | S | 30 | D (E. coli strain 8157): 30; Cat. [3]: R; D [3]: 0; Cat. [5]: R; D [5]: 0; Cat. [8]: R; D [8]: 0; Category (Cat.) (E. coli ATCC 25922): S; Diameter (D) (E. coli ATCC 25922): 22; Category [9]: R; Category (E. coli strain 9003): S; Category [11]: R; Category [10]: R
6 | CN[C@H](CC(C)C)C(=O)N[C@H]1C(=O)N[C@@H](CC(N)=O)C(=O)N[C@H]2C(=O)N[C@H]3C(=O)N[C@H](C(=O)N[C@H](C(=O)O)c4cc(O)cc(O)c4-c4cc3ccc4O)[C@H](O)c3ccc(c(Cl)c3)Oc3cc2cc(c3O[C@@H]2O[C@H](CO)[C@@H](O)[C@H](O)[C@H]2O[C@H]2C[C@](C)(N)[C@H](O)[C@H](C)O2)Oc2ccc(cc2Cl)[C@H]1O [Vanco] | R | – | – | – | – | – | – | – | – | – | – | – | – | – | – | – | – | – | – | – | –
7 | NC[C@H]1O[C@H](O[C@H]2[C@H](O)[C@@H](O[C@H]3O[C@H](CO)[C@@H](O)[C@H](N)[C@H]3O)[C@H](N)C[C@@H]2N)[C@H](N)C[C@@H]1O [Tobramycin] | – | S | 24 | S | 30 | S | 24 | S | 22 | S | R | 0 | S | 30 | S | 31 | R | 14 | R | 11 | D (E. coli strain 8157): 24; Cat. [3]: R; D [3]: 11; Cat. [5]: S; D [5]: 27; Cat. [8]: R; D [8]: 0; Category (Cat.) (E. coli ATCC 25922): S; Diameter (D) (E. coli ATCC 25922): 24; Category [9]: R; Category (E. coli strain 9003): S; Category [11]: R; Category [10]: S
8 | O=C(N[C@H](CO)[C@H](O)c1ccc([N+](=O)[O-])cc1)C(Cl)Cl [Chloram] | S | – | – | – | – | – | – | – | – | – | – | – | – | – | – | – | – | – | – | – | –
9 | CCC[C@@H]1C[C@@H](C(=O)N[C@@H]([C@H]2O[C@H](SC)[C@H](O)[C@@H](O)[C@H]2O)[C@H](C)Cl)N(C)C1 [Clindamycin] | R | – | – | – | – | – | – | – | – | – | S | 30 | S | 29 | S | 31 | R | 0 | R | 0 | –
10 | CN(C)[C@@H]1C(O)=C(C(N)=O)C(=O)[C@@]2(O)C(O)=C3C(=O)c4c(O)cccc4[C@@](C)(O)[C@H]3C[C@@H]12 [Tetra] | S | – | – | – | – | – | – | – | – | – | – | – | – | – | – | – | – | – | – | – | –
11 | CC(=O)NC[C@H]1CN(c2ccc(N3CCOCC3)c(F)c2)C(=O)O1 [Linezolid] | S | – | – | – | – | – | – | – | – | – | – | – | – | – | – | – | – | – | – | – | –
12 | COc1c(N2C[C@@H]3CCCN[C@@H]3C2)c(F)cc2c(=O)c(C(=O)O)cn(C3CC3)c12 [Moxiflo] | R | – | – | – | – | – | – | – | – | – | – | – | – | – | – | – | – | – | – | – | –
13 | CC1(C)S[C@@H]2[C@H](NC(=O)[C@H](N)c3ccc(O)cc3)C(=O)N2[C@H]1C(=O)O [Amoxicillin] | – | R | 0 | R | 0 | S | 24 | S | 25 | R | R | 17 | R | 26 | R | 12 | S | 33 | S | 32 | D (E. coli strain 8157): 0; Cat. [3]: R; D [3]: 0; Cat. [5]: R; D [5]: 0; Cat. [8]: R; D [8]: 0; Category (Cat.) (E. coli ATCC 25922): S; Diameter (D) (E. coli ATCC 25922): 23; Category [9]: R; Category (E. coli strain 9003): R; Category [11]: R; Category [10]: R
